Source: the supplement of paper PMC10307832

How the values were obtained:
Assay in all cases: relative viability (nuclei count vs DMSO), 5 days (fraction); higher = more cells survive
Carboplatin + Decitabine = compound: C1CC(C1)(C(=O)O)C(=O)O.[NH2-].[NH2-].[Pt+2] [Carboplatin] + Nc1ncn([C@H]2C[C@H](O)[C@@H](CO)O2)c(=O)n1 [Decitabine] (partner 2 µM)
In short: (§1)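 One day after seeding in 1536-well plates, lung cancer cell lines were dosed by pin tool. Dosing was either single-drug or a fixed anchor-drug dose plus five library-drug doses (not always all listed) in √10 steps. After 5 days, nuclei were stained in one fix-and-stain step and counted on 4× images, and relative viability is the nuclei count of treated wells over that of vehicle wells, given as the median of duplicate plates.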

Carboplatin + Linsitinib = compound: C1CC(C1)(C(=O)O)C(=O)O.[NH2-].[NH2-].[Pt+2] [Carboplatin] + C[C@]1(O)C[C@@H](c2nc(-c3ccc4ccc(-c5ccccc5)nc4c3)c3c(N)nccn32)C1 [Linsitinib] (partner 1 µM)
In short: as §1

MLN4924 + Foretinib = compound: NS(=O)(=O)OC[C@@H]1C[C@@H](n2ccc3c(N[C@H]4CCc5ccccc54)ncnc32)C[C@@H]1O [MLN4924] + COc1cc2c(Oc3ccc(NC(=O)C4(C(=O)Nc5ccc(F)cc5)CC4)cc3F)ccnc2cc1OCCCN1CCOCC1 [Foretinib] (partner 0.25 µM)
In short: as §1

GSK126 + OSI-027 = compound: CC[C@H](C)N1C=C(C2=C(C=C(C=C21)C3=CN=C(C=C3)N4CCNCC4)C(=O)NCC5=C(C=C(NC5=O)C)C)C [GSK126] + COc1cccc2cc(-c3nc([C@H]4CC[C@H](C(=O)O)CC4)n4ncnc(N)c34)[nH]c12 [OSI-027] (partner 0.5 µM)
In short: as §1

UMC-11
relative viability (Carboplatin + Decitabine; first compound 0.08 µM): 0.596 | relative viability (Carboplatin + Decitabine; first compound 0.253 µM): 0.626 | relative viability (Carboplatin + Decitabine; first compound 0.8 µM): 0.482 | relative viability (Carboplatin + Decitabine; first compound 2.53 µM): 0.576 | relative viability (Carboplatin + Decitabine; first compound 8 µM): 0.418 | relative viability (Carboplatin + Linsitinib; first compound 0.08 µM): 1.02 | relative viability (Carboplatin + Linsitinib; first compound 0.253 µM): 1.01 | relative viability (Carboplatin + Linsitinib; first compound 0.8 µM): 0.928 | relative viability (Carboplatin + Linsitinib; first compound 2.53 µM): 0.98 | relative viability (Carboplatin + Linsitinib; first compound 8 µM): 0.837 | relative viability (MLN4924 + Foretinib; first compound 0.04 µM): 0.57 | relative viability (MLN4924 + Foretinib; first compound 0.1265 µM): 0.307 | relative viability (MLN4924 + Foretinib; first compound 0.4 µM): 0.298 | relative viability (MLN4924 + Foretinib; first compound 1.265 µM): 0.191 | relative viability (MLN4924 + Foretinib; first compound 4 µM): 0.173 | relative viability (GSK126 + OSI-027; first compound 0.08 µM): 0.563 | relative viability (GSK126 + OSI-027; first compound 0.253 µM): 0.522 | relative viability (GSK126 + OSI-027; first compound 0.8 µM): 0.484 | relative viability (GSK126 + OSI-027; first compound 2.53 µM): 0.44 | relative viability (GSK126 + OSI-027; first compound 8 µM): 0.43
